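Following 48 hours of exposure in 96-well plates, responses at five concentrations were used to interpolate endpoints linearly. Abbreviation: GI50, concentration required for 50% inhibition of growth. Definition used: TGI = concentration required for complete inhibition of growth.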

Holding throughout (assay): DTP human tumour cell line panel, 48 h
Assay [1] has as its system HS 578T breast.
Assay [2] has as its system ACHN renal.
Assay [3] deals with SNB-75 CNS.
In assay [4] the test system is LOX IMVI melanoma.
Assay [5] concerns SK-MEL-2 melanoma.
Assay [6] concerns NCI-H23 lung.
Assay [7] deals with HT29 colon.
In assay [8] the test system is CCRF-CEM leukemia.
The test system of assay [9] is A549 NSCLC.
The test system of assay [10] is A498 renal.

One may read the GI50 as the concentration that inhibits growth by half. The TGI is the concentration giving total growth inhibition. High values mean less potent growth arrest, low ones more potent growth arrest. For `O=C(Nc1ccc(-n2ccc3c(NC(=O)c4ccccc4)nccc32)cc1)c1ccc(N2CCOCC2)c(C(F)(F)F)c1`, the GI50 in [1] was 1.81 µM; in [2], 0.106 µM; in assay [3], 0.518 µM; in assay [4], 0.0334 µM; in assay [5], 0.236 µM; in assay [6], 1.39 µM. Further, the GI50 in assay [7] was 0.0476 µM; in assay [8], 0.44 µM; in assay [9] it was 0.0488 µM; in assay [10] it was 2.19 µM. The TGI in assay [1] was > 76.5 µM; in assay [2], 22.8 µM; in [3], 13.9 µM; in assay [4] it was 7.06 µM; in assay [5], 15.8 µM; in assay [6], > 44.8 µM. For the same compound, the total growth inhibition concentration (TGI) in [7] was 3.71 µM; in assay [8], > 100 µM; in assay [9], 4.15 µM; in assay [10], 26.6 µM.

As to `COc1ccc(-c2cc(-c3ccc(Cl)cc3)nc(SCCCCCCC(=O)NO)n2)cc1`, the GI50 was 1.81 µM in assay [1]; 1.11 µM in assay [2]; 1.36 µM in assay [3]; 1.22 µM in [4]; 5.73 µM in [5]; 1.56 µM in assay [6]. For the same compound, the GI50 was 1.71 µM in assay [7], 0.861 µM in [8], 1.62 µM in assay [9] and 1.28 µM in assay [10]. For the same compound, the concentration for total growth inhibition (TGI) is > 50 µM in [1]; 2.67 µM in assay [2]; 23.8 µM in [3]; 3.05 µM in assay [4]; > 50 µM in [5]; 7.81 µM in [6]. The TGI in [7] was determined as 16.6 µM; in [8] it was 14.4 µM; in [9], 10.7 µM; in assay [10], 3.8 µM.

For the compound `COc1ccccc1N1CCN(CCCOc2ccc(C(=O)/C=C3/C(=O)Nc4ccccc43)cc2)CC1`, the GI50 in assay [1] was 22.5 µM; in [2], 15.9 µM; in assay [3], 14.9 µM; in assay [4] it was 11.8 µM; in [5], 5.54 µM; in assay [6], 6.19 µM. Also, the GI50 was 3.13 µM in assay [7], 3.07 µM in assay [8], 22.1 µM in assay [9] and 19.3 µM in [10]. Also, the TGI was > 52.7 µM in assay [1]; > 77.6 µM in assay [2]; 43.9 µM in assay [3]; 26.4 µM in assay [4]; > 80.4 µM in [5]; 38.6 µM in assay [6]. Besides, the TGI in [7] was 12.2 µM; in assay [8], > 43.2 µM; in assay [9] it was > 100 µM; in [10], 70.5 µM.

Take `Cc1ccccc1C[P+](c1ccccc1)(c1ccccc1)c1ccccc1`: the GI50 in [1] was 2.13 µM; in [2], 7.28 µM; in assay [3], 1.21 µM; in assay [4] it was 1.09 µM; in assay [5], 1.29 µM; in assay [6], 1.97 µM. In addition, the GI50 in [7] is 0.849 µM; in [8], 2.04 µM; in [9] it was 3.72 µM; in assay [10], 1.93 µM. Also, the TGI in assay [1] is 33.7 µM; in assay [2], > 100 µM; in assay [3], 16.2 µM; in assay [4], > 100 µM; in assay [5] it was 68.4 µM; in assay [6] it was > 100 µM. Moreover, the concentration for total growth inhibition (TGI) in assay [7] is 14.8 µM; in [8], > 100 µM; in assay [9] it was > 100 µM; in assay [10], 12.7 µM.

Regarding `Clc1nc(-c2ccccc2)nc(Cl)c1Cl`, the TGI in [1] stood at 47.3 µM; in assay [2], 9.33 µM; in assay [3], 29.1 µM; in assay [4], 5.6 µM; in [6] it was 32.6 µM; in [7], 27.6 µM. The TGI is 7.99 µM in [8], 33.1 µM in [9] and 31.5 µM in assay [10].

Regarding `NC(N)=NC(N)=Nc1ccc(S(N)(=O)=O)cc1`, the TGI in [1], in assay [2], in assay [3], in assay [4], in assay [5] and in assay [6] was > 100 µM each time. The TGI in assay [7], in assay [8], in assay [9] and in [10] was > 100 µM each time.

For the compound `CCN(CC)CCC(=O)N1C/C(=C/c2ccccc2)C(=O)/C(=C\c2ccccc2)C1`, the concentration for total growth inhibition (TGI) in assay [1] was 2.21 µM; in assay [2], 7.63 µM; in assay [3], 12.5 µM; in assay [4], 0.949 µM; in assay [5], 5.08 µM; in assay [6] it was 3.91 µM. Besides, the TGI in assay [7] was determined as 2.24 µM; in [8], 0.947 µM; in [9] it was 17.1 µM; in [10], 11 µM.

Consider `CCCCCCC/C=C1\CCC(CN(C)C)C1=O` (centres undefined), for which the TGI is > 100 µM in assay [1]; 31.6 µM in assay [2]; 33.1 µM in assay [3]; 15 µM in assay [4]; 29.8 µM in assay [5]; 32.7 µM in assay [6]. The TGI worked out at 29.9 µM in assay [7], 13 µM in [8], 50 µM in assay [9] and 35.6 µM in assay [10].

Take `C=C(C)[C@@H]1CC[C@]2(CN)CC[C@]3(C)[C@H](CC[C@@H]4[C@@]5(C)CCC(N)[C@@](C)(CO)[C@@H]5CC[C@]43C)[C@@H]12` (some centres undefined): the GI50 was 1.65 µM in [1]; 1.86 µM in [2]; 1.62 µM in [3]; 1.64 µM in assay [4]; 1.89 µM in [5]; 1.96 µM in assay [6]. In addition, the GI50 in assay [7] was 1.59 µM; in [8], 1.71 µM; in assay [9] it was 1.73 µM; in [10] it was 1.44 µM. Moreover, the TGI came to 3.65 µM in assay [1]; 3.29 µM in assay [2]; 3.07 µM in [3]; 3.1 µM in assay [4]; 3.44 µM in assay [5]; 3.61 µM in assay [6]. In addition, the concentration for total growth inhibition (TGI) came out at 3.12 µM in assay [7], 3.65 µM in assay [8], 3.27 µM in [9] and 2.79 µM in assay [10].

These data come from PubChem BioAssay (NCI).
